Patent US8846733B2, “Oxazolyl-methylether derivatives as ALX receptor agonists” (Actelion Pharmaceuticals Ltd., priority 2010, dated 2014)

Tests used:
[1] = Plasma stability assay, human plasma; format: in vitro ADME; details: for remaining concentration at Tlast / half-life at 1 μM: human plasma; for half-life at 1 μM: pH 7.4, 37° C.
Description: (§1) Rat or human plasma adjusted at pH 7.4 with lactic acid or ammonium hydroxide, were equilibrated at 37° C. under orbital shaking in an incubator containing 5% CO2. The reaction was initiated by the addition of 1 μM of compounds (1 μl of 1 mM stock solution in DMSO in 999 μl of plasma). At 0.01 h, 0.25 h, 0.5 h, 1 h, 2 h, 4 h, 6 h and 24 h, aliquots (30 μl) were transferred in a 96 well plate containing 90 μl MeOH placed on ice to stop the reaction. After vortexing for 20 min at 1400 rpm on an Eppendorf thermomixer, the plates were centrifuged at 3220 g for 20 min at 4° C. and the supernatants were analyzed with LC-MSMS. Calibration samples in plasma containing 0.1% of dichlorvos were prepared and analysed in parallel to the incubation samples to allow the quantification. Half lives in hours were then calculated. In addition the remaining concentration of the respective compound after time Tlast relative to the concentration at the beginning has been determined (table 3).

[2] = target: T1, recombinant human ALX receptor (Homo sapiens, UniProt P25090); experiment: Intracellular calcium measurements (FLIPR), ALX receptor agonistic activity; format: cell-based; details: HEK293-hALXR-Gα16 cells; Table 1, exemplified compounds
T1 construct: expressed in transfected cells; host or cells: HEK293 (HEK293-hALXR-Gα16)
T1 sequence (P25090 1-351): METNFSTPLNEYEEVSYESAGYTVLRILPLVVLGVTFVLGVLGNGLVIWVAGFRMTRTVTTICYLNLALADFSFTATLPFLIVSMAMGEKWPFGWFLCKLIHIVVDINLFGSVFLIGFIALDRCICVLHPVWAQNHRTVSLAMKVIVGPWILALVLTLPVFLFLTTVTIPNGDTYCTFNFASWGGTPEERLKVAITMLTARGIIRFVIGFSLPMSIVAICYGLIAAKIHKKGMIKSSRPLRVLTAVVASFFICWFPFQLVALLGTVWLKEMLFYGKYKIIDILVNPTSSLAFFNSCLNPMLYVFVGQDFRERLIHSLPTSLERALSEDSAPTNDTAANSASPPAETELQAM
Description: The ALX receptor agonistic activity of the compounds of formula (I) is determined in accordance with the following experimental method.
Intracellular Calcium Measurements:
Cells expressing recombinant human ALX receptor and the G-protein Gα16 (HEK293-hALXR-Gα16) were grown to 80% confluency in Growing Medium (GM). Cells were detached from culture dishes with a cell dissociation buffer (Invitrogen, 13151-014), and collected by centrifugation at 1,000 rpm at rt for 5 min in Assay Buffer (AB) (equal parts of Hank's BSS (Gibco, 14065-049) and DMEM without Phenol Red (Gibco, 11880-028)). After 60 min incubation at 37° C. under 5% CO2 in AB supplemented with 1 μM Fluo-4 (AM) (Invitrogen, F14202) and 20 mM HEPES (Gibco, 15630-056), the cells were washed and resuspended in AB. They were then seeded onto 384-well FLIPR assay plates (Greiner, 781091) at 50,000 cells in 70 μl per well and sedimented by centrifugation at 1,000 rpm for 1 min. Stock solutions of test compounds were made up at a concentration of 10 mM in DMSO, and serially diluted in AB to concentrations required for activation dose response curves. WKYMVm (Phoenix Peptides) was used as a reference agonist. A FLIPR Tetra instrument (Molecular Devices) was operated according to the manufacturer's standard instructions, adding 4 μl of test compound dissolved at 10 mM in DMSO and diluted prior to the experiment in assay buffer to obtain the desired final concentration. Changes in fluorescence were monitored before and after the addition of test compounds at lex=488 nm and lem=540 nm. Emission peak values above base level after compounds addition were exported after base line subtraction. Values were normalized to high-level control (WKYMVm compound, 10 nM final concentration) after subtraction of the base line value (AB addition).

[3] = Plasma stability assay, rat plasma; format: in vitro ADME; details: for half-life at 1 μM: pH 7.4, 37° C.
Description: as §1

[4] = Plasma stability assay with tritiated compounds, human plasma; format: in vitro ADME
Description: (§2) Rat or human plasma adjusted at pH 7.4 with lactic acid were equilibrated at 37° C. under orbital shaking. The reaction was initiated by the addition of 10 μM of tritiated compound (7.5 μl of 1 mM stock solution in DMSO in 742.5 μl of plasma). At the beginning and after 4 h, 6 h and 24 h, aliquots (100 μl) were transferred in a tube containing 400 μl MeOH placed on ice to stop the reaction. After vortexing for 20 min at 1400 rpm on an Eppendorf thermomixer, the plates were centrifuged at 3220 g for 20 min at 4° C. and an aliquot of supernatants was analyzed with liquid chromatography coupled to a H3-radiodetector. The remaining pellet was further extracted with AcCN in three additional cycles of resuspension, mixing 20 min at 2000 rpm on an eppendorf thermomixer and centrifugation (3220 g for 20 min at 4° C.). The total radioactivity was measured in the collected supernatants. The final pellet was then solubilized in NaOH 1N and the total radioactivity was measured (table 4).

[5] = Plasma stability assay with tritiated compounds, rat plasma; format: in vitro ADME
Description: as §2

For `COCc1coc(Cn2ncc(NC(=O)c3nc(C)oc3-c3cccc(C)c3)n2)n1` [Example 2, N-(2-((4-(Methoxymethyl)oxazol-2-yl)methyl)-2H-1,2,3-triazol-4-yl)-2-methyl-5-(m-tolyl)oxazole-4-carboxamide], the “remaining concentration at Tlast” value ([1]; Tlast 24 h) was 101%, the half-life at 1 μM [1] was over 24 h and the “stability in plasma, in words” value ([1]; rat and human plasma, compared with reference compound 11 / compounds of WO 2009/077990) was “remarkably more stable”. For the same molecule, the EC50 [2] was 1.7 nM, the “remaining concentration at Tlast” value ([3]; Tlast 24 h) was 88% and the half-life at 1 μM [3] was over 24 h.

With `CC(=O)c1coc(Cn2ncc(NC(=O)c3nc(C)oc3-c3cccc(C)c3)n2)n1` [reference compound 11, N-(2-((4-acetyloxazol-2-yl)methyl)-2H-1,2,3-triazol-4-yl)-2-methyl-5-(m-tolyl)oxazole-4-carboxamide] the “remaining concentration at Tlast” value ([1]; Tlast 6 h) was 18%, the half-life at 1 μM [1] was 2.4 h and the total radioactivity ([4]; human plasma pellet, nominal incubation time 0.01 h) was 918 dpm. The total radioactivity ([4]; human plasma pellet, nominal incubation time 4.0 h) was 170136 dpm, the total radioactivity ([4]; human plasma pellet, nominal incubation time 6.4 h) was 185420 dpm and the total radioactivity ([4]; human plasma pellet, nominal incubation time 24.4 h) was 227567 dpm. It also gave a total radioactivity ([4]; human plasma supernatant, nominal incubation time 0.01 h, 10 μM tritiated compound) of 158854 dpm, a total radioactivity ([4]; human plasma supernatant, nominal incubation time 4.0 h) of 38918 dpm and a total radioactivity ([4]; human plasma supernatant, nominal incubation time 6.4 h) of 10532 dpm. For the same molecule, the total radioactivity ([4]; human plasma supernatant, nominal incubation time 24.4 h) was 3134 dpm, the “association of drug related material with plasma proteins, in words” value ([4]; rat and human plasma, tritiated compound, radioactivity moving from supernatant to pellet) was “strong association of drug related material with plasma proteins” and the total radioactivity ([5]; rat plasma pellet, nominal incubation time 0.01 h) was 419 dpm. It also gave a total radioactivity ([5]; rat plasma pellet, nominal incubation time 4.0 h) of 124853 dpm, a total radioactivity ([5]; rat plasma pellet, nominal incubation time 6.4 h) of 153683 dpm and a total radioactivity ([5]; rat plasma pellet, nominal incubation time 24.4 h) of 180032 dpm. For the same molecule, the total radioactivity ([5]; rat plasma supernatant, nominal incubation time 0.01 h, 10 μM tritiated compound) was 173116 dpm, the total radioactivity ([5]; rat plasma supernatant, nominal incubation time 4.0 h) was 94798 dpm and the total radioactivity ([5]; rat plasma supernatant, nominal incubation time 6.4 h) was 45228 dpm. The total radioactivity ([5]; rat plasma supernatant, nominal incubation time 24.4 h) was 4816 dpm, the “remaining concentration at Tlast” value ([3]; Tlast 6 h) was 42% and the half-life at 1 μM [3] was 4.7 h.
